Assay results as given in publication PMC6219668 (Oncotarget, 2018).
Where two headings read alike, the source gives them in different places.

System: panel of nearly 500 cancer cell lines
Assay: Cancer Cell Line Encyclopedia profiling, 3-day CellTiter-Glo
Format: cell-based
Conditions: read-out: IC50

Compound: CC(=O)c1c(C)c2cnc(Nc3ccc(N4CCNCC4)cn3)nc2n(C2CCCC2)c1=O [Palbociblib]
- IC50 (ovcar4 (ovary)): > 8 µM
- IC50 (ovcar8 (ovary)): > 8 µM
- IC50 (ovmana (ovary)): > 8 µM
- IC50 (ovsaho (ovary)): > 8 µM
- IC50 (ovtoko (ovary)): > 8 µM
- IC50 (p3hr1 (haematopoietic_and_lymphoid_tissue)): 7.56 µM
- IC50 (p31fuj (haematopoietic_and_lymphoid_tissue)): > 8 µM
- IC50 (panc0203 (pancreas)): > 8 µM
- IC50 (panc0327 (pancreas)): > 8 µM
- IC50 (panc0403 (pancreas)): > 8 µM
- IC50 (panc1005 (pancreas)): > 8 µM
- IC50 (pc3 (prostate)): > 8 µM
- IC50 (pfeiffer (haematopoietic_and_lymphoid_tissue)): 6.95 µM
- IC50 (pk1 (pancreas)): > 8 µM
- IC50 (pk59 (pancreas)): > 8 µM
- IC50 (pk45h (pancreas)): > 8 µM
- IC50 (pl45 (pancreas)): > 8 µM
- IC50 (plcprf5 (liver)): > 8 µM
- IC50 (raji (haematopoietic_and_lymphoid_tissue)): > 8 µM
- IC50 (rd (soft_tissue)): > 8 µM
- IC50 (reh (haematopoietic_and_lymphoid_tissue)): 5.91 µM
- IC50 (rerfgc1b (stomach)): > 8 µM
- IC50 (rerflcai (lung)): > 8 µM
- IC50 (rerflcms (lung)): > 8 µM
- IC50 (rkn (soft_tissue)): > 8 µM
- IC50 (rko (large_intestine)): > 8 µM
- IC50 (rl952 (endometrium)): > 8 µM
- IC50 (rt4 (urinary_tract)): > 8 µM
- IC50 (rt112 (urinary_tract)): > 8 µM
- IC50 (rvh421 (skin)): > 8 µM
- IC50 (saos2 (bone)): > 8 µM
- IC50 (sbc5 (lung)): > 8 µM
- IC50 (scaber (urinary_tract)): > 8 µM
- IC50 (scc25 (upper_aerodigestive_tract)): > 8 µM
- IC50 (sf126 (central_nervous_system)): > 8 µM
- IC50 (sf295 (central_nervous_system)): > 8 µM
- IC50 (sf8657 (skin)): > 8 µM
- IC50 (sh10tc (stomach)): > 8 µM
- IC50 (shp77 (lung)): > 8 µM
- IC50 (sjrh30 (soft_tissue)): > 8 µM
- IC50 (sjsa1 (bone)): > 8 µM
- IC50 (skbr3 (breast)): > 8 µM
- IC50 (skco1 (large_intestine)): > 8 µM
- IC50 (skes1 (bone)): > 8 µM
- IC50 (skhep1 (liver)): > 8 µM
- IC50 (sklu1 (lung)): > 8 µM
- IC50 (skmel2 (skin)): > 8 µM
- IC50 (skmel5 (skin)): > 8 µM
- IC50 (skmel24 (skin)): > 8 µM
- IC50 (skmel30 (skin)): > 8 µM
- IC50 (skmel31 (skin)): > 8 µM
- IC50 (skmm2 (haematopoietic_and_lymphoid_tissue)): > 8 µM
- IC50 (sknas (autonomic_ganglia)): > 8 µM
- IC50 (sknbe2 (autonomic_ganglia)): 4.99 µM
- IC50 (skndz (autonomic_ganglia)): > 8 µM
- IC50 (sknsh (autonomic_ganglia)): > 8 µM
- IC50 (skov3 (ovary)): > 8 µM
- IC50 (sngm (endometrium)): > 8 µM
- IC50 (snu1 (stomach)): 5.73 µM
- IC50 (snu16 (stomach)): > 8 µM
- IC50 (snu182 (liver)): > 8 µM
- IC50 (snu423 (liver)): > 8 µM
- IC50 (snu449 (liver)): > 8 µM
- IC50 (snuc2a (large_intestine)): > 8 µM
- IC50 (snuc2b (large_intestine)): > 8 µM
- IC50 (su8686 (pancreas)): > 8 µM
- IC50 (sudhl8 (haematopoietic_and_lymphoid_tissue)): 1.21 µM
- IC50 (sudhl10 (haematopoietic_and_lymphoid_tissue)): 3.42 µM
- IC50 (suit2 (pancreas)): > 8 µM
- IC50 (supm2 (haematopoietic_and_lymphoid_tissue)): 5.92 µM
- IC50 (supt1 (haematopoietic_and_lymphoid_tissue)): > 8 µM
- IC50 (sw48 (large_intestine)): > 8 µM
- IC50 (sw403 (large_intestine)): > 8 µM
- IC50 (sw480 (large_intestine)): > 8 µM
- IC50 (sw579 (thyroid)): > 8 µM
- IC50 (sw620 (large_intestine)): > 8 µM
- IC50 (sw780 (urinary_tract)): 1.64 µM
- IC50 (sw900 (lung)): > 8 µM
- IC50 (sw1271 (lung)): > 8 µM
- IC50 (sw1353 (bone)): > 8 µM
- IC50 (sw1417 (large_intestine)): > 8 µM
- IC50 (sw1990 (pancreas)): > 8 µM
- IC50 (t3m10 (lung)): > 8 µM
- IC50 (t24 (urinary_tract)): > 8 µM
- IC50 (t84 (large_intestine)): > 8 µM
- IC50 (t98g (central_nervous_system)): > 8 µM
- IC50 (t47d (breast)): > 8 µM
- IC50 (tc71 (bone)): > 8 µM
- IC50 (tccsup (urinary_tract)): > 8 µM
- IC50 (te9 (oesophagus)): > 8 µM
- IC50 (te617t (soft_tissue)): 1.01 µM
- IC50 (ten (endometrium)): > 8 µM
- IC50 (toledo (haematopoietic_and_lymphoid_tissue)): > 8 µM
- IC50 (tov21g (ovary)): > 8 µM
- IC50 (tov112d (ovary)): > 8 µM
